The test system of one test is MDA-MB231. Briefly: Cytotoxicity assay (CCK-8, net growth % vs control). It counts as cell-based. The conditions noted are these: Homo sapiens, MDA-MB-231; MDA-MB231 (estrogen receptor negative), 48 hours incubation; read-out: 50% inhibition of cell growth concentrations of test compounds (IC50). The text has this: (§1) Materials: DMEM (medium), RPMI (medium), L-glutamine, penicillin, streptomycin and FBS (fetal bovine serum) were obtained from Gibco (NY, USA). Culture plasticware was purchased from Coming (MA, USA). […] All other chemicals used were of reagent grade and were purchased from Sigma or E. Merck (Germany).
(§2) Cell lines and cell cultures: The human breast cancer cell lines T47D and MDA-MB231 were obtained from American Type Culture Collection (ATCC). Of both cancer cells, T47D is estrogen receptor positive, and MDA-MB231 is estrogen receptor negative. Cells were cultured at 37°C in RPMI medium containing 10% charcoal-dextran stripped fetal bovine serum for T47D cells and in DMEM medium containing 10% charcoal-dextran stripped fetal bovine serum for MDA-MB231 cells with 5% CO2. The cell proliferation was determined by counting the viable cells with trypan blue exclusion.
(§3) Cytotoxicity assay: Dispense 198 µl of cell suspension (20,000 cells for T47D per well and 10,000 cell for MDA-MB231 per well) in a 96-well plate and pre-incubate the plate for 24 hours in an incubator at 37°C with humidified 5% CO2. […] After plate was incubated for 48 hours in the incubator, media were aspirated of and new media (100 µl) were added and incubated for 1 more hour. […] Measure the absorbance at 450 nm using a ELISA reader. […]

For a further test, the system named is T47D. The test is described as above. It is filed as cell-based. As to conditions: Homo sapiens; T47D (estrogen receptor positive), 48 hours incubation; read-out: 50% inhibition of cell growth concentrations of test compounds (IC50).
Text: as §1, §2, §3

In test [1] the test system is female Wistar rats. The experiment in a line: Ovariectomized rat osteoporosis model, bone histomorphometry of proximal tibia. The conditions noted are these: two months, mean value, p < 0.001 vs OVX; for Bone volume % (BV/TV): proximal tibia head trabecular bone, OVX group 12.50%, Sham 29.50%; for Erosion surface (ESBS, %): proximal tibia, OVX group 5.8%, Sham 4.7%. It is filed as in vivo. The source says: (§4) The purpose of this example is to show the potency of bakuchiol in treating osteoporosis, wherein ovary of a female rat is removed to stimulate osteoporosis caused by estrogen deficiency.
(§5) The female Wistar rats of 16 weeks old (unless specified in the other experiment description) were obtained from the stock reared by the Animal breeding center, National Scientific Council in Taipei. These rats were grouped by weights matched in order to distribute the physiological response variation from rats evenly into each group. These rats were grouping as follows: • Baseline group fed with no drug added food (n=8) • Sham operation group fed with no drug added food (Sham) (n=10) • Ovariectomy operation group fed with no drug added food (OVX) (n=8) • Ovariectomy operation group fed with Drug A (5 mg/kg) added food (OVX+A) (n=9) • Ovariectomy operation group fed with Drug B (15 mg/kg) added food (OVX+B) (n=9)
Ovariectomy (removal of ovaries) operation: Ovariectomy was induced using a protocol similar to that described by Wronski et al (Wronski et al, Endocrinology, 123(2), 681-86 (1988)).
During the experiments, the rats were housed in hanging grid cages in groups of two at 21°C with a 12 hours dark cycle. Food (Rat-mouse diet III, adequate in 1 % of calcium content and 1.2 % of phosphate content, Purina, USA) was administered by paired feeding between the experimental and control groups. Pair-feeding was carried out by calculating the average amount of food intake in the Sham group. So give the same amount of food to the OVX , OVX+A (5 mg/kg), OVX+B (15 mg/kg) group animals the following day. These animals were fed with a period of two months except for the baseline group which were killed on the very day of doing ovariectomy or sham operation. Rats of OVX+A and OVX+B groups were fed with the usual food chuck but added certain amount of compound A and B in it respectively. Water was given ad libitum to all rats.
The test drug was weighted according to dose of 5 mg/kg and 15 mg/kg, and added into the ususal food chuck powder and mixed with 10% starch paste. After fully mixed, these chuck powder were made into mass manually and dried by air flow oven. The food with added drug to rats was performed by single blind method.
These labeling and bone histomorphometry assessment were done based on standard procedure in bone research (Lin et al, Calcif. Tissue Int., 67, 373-377 (2000)). Specimen were prestained with Villanueva bone stain, then […] and embedded in London resin. Undecalcified sections of 7 µm thick were cut using Jung-K microtome (Leica Ltd, USA) and treated with Villanueva stain for observation under light microscopy. Seven µm thick unstained sections were prepared for fluorescent microscopy and assessed with program Osteomeasure (3.0 version, Atlanta, USA). […]

For test [2], the system named is female Wistar rats. Briefly: Ovariectomized rat osteoporosis model, apparent bone density measurement of tibia (Archimedes principle). It is filed as in vivo. The conditions noted are these: two months, mean value, OVX group 1.549, Sham 1.589, p < 0.05 vs OVX.
Text: as §4, §5
Ovariectomy (removal of ovaries) operation: Ovariectomy was induced using a protocol similar to that described by Wronski et al (Wronski et al, Endocrinology, 123(2), 681-86 (1988)). […]
The whole tibia and femur were stripped off attached muscles and ligaments after sacrifice. […] The weight of bone measured in the air was marked as W-air. […] The apparent bone density was calculated as [W-air/(W-air minus W-water)] […]

The subject of test [3] is five different human cancer cells (lung (A549), ovary (SK-OV-3), skin (SK-MEL-2), central nervous system (XF498), and large intestine (HCT)). The conditions noted are these: range over A549, SK-OV-3, SK-MEL-2, XF498, HCT; cited from earlier work.

In brackets after ≈: the same amount, converted by molar mass.

For `C=C[C@@](C)(/C=C/c1ccc(O)cc1)CCC=C(C)C` [Bakuchiol, bakuchiol], the IC50 with MDA-MB231 is 0.62 µg/mL (≈ 2.42 µM); with T47D, 5 µg/mL (≈ 19.5 µM). Further, the results for the “Bone volume % (BV/TV)” value with female Wistar rats [1] (OVX+A group (5 mg/kg) in food) and with female Wistar rats [1] (OVX+B group (15 mg/kg) in food) were 19.80% and 20.11%, respectively. Further, the “Erosion surface (ESBS, %)” value is recorded as 5.0% with female Wistar rats [1] (OVX+A group (5 mg/kg) in food) and 4.8% in the test on female Wistar rats [1] (OVX+B group (15 mg/kg) in food). Also, the Bone apparent density came out at 1.582 gm/cm^3 in the test on female Wistar rats [2] (OVX+A group (5 mg/kg) in food) and 1.587 gm/cm^3 in the test with female Wistar rats [2] (OVX+B group (15 mg/kg) in food). Further, the “average inhibitory concentration (IC50)” value in test [3] was 10~15 µg/cc.

Values taken from patent EP1714645A1, “Pharmaceutical composition containing bakuchiol for treating breast cancer in women” (Sinphar Pharmaceutical Co., Ltd., priority 2005, dated 2006).
